What was measured:
Format in all cases: cell-based, human
matrix mineralization = assay: Total calcium, spectrophotometric
Experimental: Cells were washed with PBS (no Ca^2+, no Mg^2+) and harvested in 0.1N HCl. Cells were extracted for a minimum of 4 hours at 4° C. and centrifuged at 1000×g for 5 minutes. Total calcium in the supernatant was determined using Sigma kit #587 and measured at A575 nm. The assay was calibrated using calcium standard solutions. Total protein was determined and the samples were expressed as mM Ca/ug protein. […] Values are expressed as the mean±SD.
Bone formation in vivo is a complex process involving morphogens, hormones and growth factors. Recent work has questioned the efficacy of synthetic glucocorticoids, like dexamethasone (Dex), in mediating osteogenesis. Glucocorticoids appear to inhibit the action of several osteogenic genes including osteocalcin, CBFA-1 and CNI (as reviewed in Cooper, et al., 1999 J. Endocrinol. 163:159-164). It is well established that bone tissue and osteoprogenitor cells are targets of vitamin D action (Chen, et al., 1983 J. Biol. Chem. 258:4350; Chen, et al., 1979 J. Biol. Chem. 254:7491; Narbaitz, et al., 1983 Calcif. Tiss. Int. 35:177) and this metabolite stimulates both AP activity and CNI synthesis by human bone cell populations (Beresford, et al., 1986 Endo 119:1776-1785). […] AP activity and Ca^2+ accumulation were measured over time using commercial kits and normalized with respect to protein and/or time.

PLA cells = assay: Micromass culture chondrogenic nodule formation; settings: induction medium containing TGFβ1 alone
Experimental: Chondrogenic differentiation was induced using a micromass culture protocol as previously described with some modifications (Ahrens, P B, et al., 1977 Dev. Biol. 60:69-82; Denker, A E 1995 Differentiation 59:25-34). Ten microliter drops of the PLA cellular suspension were placed in the center of each well of a 24-well tissue culture plate and on chamber slides. The cells were placed in an incubator at 37° C. at 5% CO2 for two hours to allow cell adherence. The pellets were gently overlaid with control medium and incubated overnight. The medium was replaced by chondrogenic medium [DMEM with 1% FBS supplemented with 10 ng/ml TGF-β1 (R&D Systems, Minneapolis, Minn.), 6.25 μg/ml insulin (Sigma), and 6.25 μg/ml transferrin (Sigma)]. The pellets were induced for six days in chondrogenic medium. At day six and thereafter, 50 μg/ml ascorbic acid-2-phosphate (Sigma) was added to the chondrogenic medium mixture. PLA pellets were harvested at days two, seven, and fourteen after initial induction for analysis. […] HFF cells were cultured as above under micromass and monolayer conditions as a negative control.
In order to assess the relationship of chondrogenic induction to PLA cell, micromass cultures were plated in chondrogenic medium at cell concentrations of 1×10^5, 1×10^6, 2.5×10^6, 5×10^6, 1×10^7, 2×10^7, and 5×10^7 cells per milliliter (cells/ml). […]

Alkaline phosphatase = Alkaline phosphatase enzyme activity, spectrophotometric; settings: 2 to 3 weeks
Experimental: Cells were washed with PBS and harvested into PBS/0.1% Triton X-100 (PBS/TX100). AP enzyme activity was assayed using a commercial AP enzyme kit (Sigma) and measured at an absorbance of 405 nm. Total protein in each sample was measured based on the Bradford method (Bradford 1976 Anal. Biochem. 72:248-254) using a BCA Protein Assay Kit (Pierce, Rockford, Ill.). AP activity was expressed a nmol p-nitrophenol produced/minute/ug protein. The assay was calibrated using standard p-nitrophenol solutions. Differentiated MSC and NHOst cells were assayed as positive controls while non-induced PLA cells were assayed as a negative control. Values are expressed as the mean±SD.

[1] = test system: Adipose-derived stem cells; assay: Culture in the presence of 5-azacytidine; settings: exposure to 5-azacytidine
Experimental: Adipose-derived stem cells obtained in accordance with Example 1 were cultured in the presence of 5-azacytidine.

## C=C1/C(=C\C=C2/CCC[C@]3(C)[C@@H]([C@H](C)CCCC(C)(C)O)CC[C@@H]23)C[C@@H](O)C[C@@H]1O [VD, 1,25-dihydroxyvitamin D3]
Matrix mineralization
  overall increase in matrix mineralization in PLA cells: 122 fold

## TGFβ1: transforming growth factor-beta 1
PLA cells
  nodule formation by PLA cells: PLA nodules formed

## C[C@@H]1C[C@H]2[C@@H]3CCC4=CC(=O)C=C[C@]4(C)[C@@]3(F)[C@@H](O)C[C@]2(C)[C@@]1(O)C(=O)CO [Dex, dexamethasone]
Alkaline phosphatase; MSCs
  AP enzyme induction in MSCs: 54.2 fold
Alkaline phosphatase; PLA cells
  AP enzyme induction in PLA cells: 17.2 fold
Matrix mineralization
  overall increase in matrix mineralization in PLA cells: 56 fold

## Nc1ncn([C@@H]2O[C@H](CO)[C@@H](O)[C@H]2O)c(=O)n1 [5-azacytidine]
[1]
  myogenic differentiation of adipose-derived stem cells: did not induce myogenic differentiation
